Data on 17 compounds can be found in article PMC8003278, “Structure-Based Virtual Screening and De Novo Design of PIM1 Inhibitors with Anticancer Activity from Natural Products” (Pharmaceuticals, 2021).

One test concerns the target T1, PIM1 kinase (Homo sapiens, UniProt P11309).
T1 construct: purchased Reaction Biology Corp. (Malvern, PA, USA), contract assay service
As to the kind of experiment: radiometric ([γ-33P]-ATP) kinase assay, PIM1 enzyme inhibition (Reaction Biology Corp.). The class given is biochemical. The source says: Among a total of 42,613 natural products in the chemical database, 31,874 molecules that satisfied the physicochemical property criteria for a potential drug candidate were screened through docking simulations in the ATP-binding site of PIM1 kinase, as illustrated in Figure 1. Using the modified binding free energy function involving an accurate molecular dehydration term, 100 top-scoring compounds were selected as the virtual hits, all of which were commercially available from a compound vendor (InterBioScreen Ltd., https://www.ibscreen.com, accessed on 15 October 2019). All these putative inhibitors were tested for the presence of the inhibitory activity against PIM1 kinase with in vitro radiometric ([γ-^33P]-ATP) kinase assays (Reaction Biology Corp., Malvern, PA, USA).
The inhibitory activities of all compounds with respect to PIM1 were measured by Reaction Biology Corp. (Malvern, PA, USA) using radiometric kinase assays ([γ-^33P]-ATP). Briefly, the enzymatic reaction mixtures contained an artificial substrate peptide, poly-Glu-Tyr (4:1), in freshly prepared base reaction buffer (20 mM hydroxyethyl piperazine ethane sulfonic acid (HEPES) of pH 7.5, 10 mM MgCl2, 1 mM ethylene glycol tetraacetic acid (EGTA), 0.02% Brij-35, 0.02 mg/mL bovine serum albumin (BSA), 0.1 mM Na3VO4, 2 mM dithiothreitol (DTT), and 1% DMSO). PIM1 kinase was delivered into the substrate solution and gently mixed. Each inhibitor in 100% DMSO in a serial dilution was then delivered to the reaction mixture using the acoustic dispensing system (Echo550; nanoliter range). To initiate the enzymatic reaction, ^33P-ATP with a specific activity of 10 μCi/μL was added into the reaction mixture, which was further incubated for 2 h at room temperature. Radioactivity was then monitored by the filter-binding method after the reactions were spotted onto P81 ion exchange paper, and the filters were washed extensively in 0.75% phosphoric acid. Kinase activity data were expressed as the percent remaining kinase activity in test samples compared to vehicle (dimethyl sulfoxide) reactions. IC50 values and curve fits were calculated with Prism Software (GraphPad Software) at 10 different concentrations in duplicate.

Test [1] deals with T47D human breast cancer cell lines. As to the kind of experiment: MTT cell proliferation inhibition assay in T47D cells. The class given is cell-based. The following applies: antiproliferative activity in T47D cell lines, mean ± standard deviation of the two experiments. As for the experimental part:
To assess the anticancer activities of these new PIM1 inhibitors, we carried out cell-based assays for 5, 8, 14, 15, and 16 using T47D human cancer cell lines, which represented breast cancer caused by PIM1 [48]. The natural product wortmannin served as a positive control in this cellular study. Cell viabilities were measured at varying inhibitor concentrations with a 3-(4,5-dimethylthiazol-2-yl)-2,5-diphenyltetrazolium bromide (MTT) assay. […]. However, it should be noted that the inhibitory activities of 14–16 decrease from the nanomolar level in enzyme inhibition assays (Table 2) to the micromolar level in cell proliferation assays. The poor cell permeability can be invoked to explain the reduced biochemical potency in cell-based assays. In order for the new PIM1 inhibitors to become a good lead compound for the development of anticancer medicines, improving cellular permeability using further structural modifications is required.
The T47D human breast cancer cell lines were purchased from Korean Cell Line Bank (KCLB, Seoul, Korea). T47D cells were then cultured in Roswell Park Memorial Institute 1640 (RPMI-1640) medium with 10% fetal bovine serum (FBS) and 1% penicillin/streptomycin, and maintained at 37 °C in a CO2 incubator with a controlled humidified atmosphere comprising 95% air and 5% CO2. All the cell culture reagents were purchased from Thermo Fisher Scientific.
Cell viability was measured with 3-(4,5-dimethylthiazol-2-yl)-2,5-diphenyltetrazolium bromide (MTT) assay using the natural product wortmannin as a positive control. At first, T47D cells were plated at a density of 3–5 × 10^3 cells/well in 96-well plates for 24 h and then treated with either DMSO as a control or with varying concentrations of the PIM1 inhibitors (5, 8, 14, 15, and 16). The final concentration of DMSO in the medium was <0.1% (v/v). After the incubation of cells for 48 h, 20 μL of MTT solution (5 mg/mL) was added to each well for 4 h at 37 °C. The formazan crystals formed during the mixing were dissolved in DMSO (100 μL/well) by shaking for 5 min. Duplicate wells were used for each analysis although triplicate measurements would be more reliable. After 72 h, the absorbance of each solution was measured with a microplate reader at 540 nm to calculate the antiproliferative activity of the PIM1 inhibitors. Finally, the IC50 values were measured from the dose–response curves.

Setting [2] is: PIM1, natural-product inhibitors, mean ± standard deviation of the two experiments.
The mark [3] stands for this setting: PIM1 kinase, derivatives of 2, mean ± standard deviation of the two experiments.

T1 sequence (P11309 whole entry): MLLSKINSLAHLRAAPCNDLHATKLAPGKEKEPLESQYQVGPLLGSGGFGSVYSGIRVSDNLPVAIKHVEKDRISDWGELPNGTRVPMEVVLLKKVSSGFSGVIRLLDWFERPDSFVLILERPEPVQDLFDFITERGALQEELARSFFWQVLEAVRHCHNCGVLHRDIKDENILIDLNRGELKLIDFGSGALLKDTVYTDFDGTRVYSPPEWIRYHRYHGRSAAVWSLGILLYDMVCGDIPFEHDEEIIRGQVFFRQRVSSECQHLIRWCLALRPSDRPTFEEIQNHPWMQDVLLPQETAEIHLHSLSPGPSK

`O=c1c(-c2ccc(OC3OC(CO)C(O)C(O)C3O)cc2)coc2cc(O)cc(O)c12` (stereo not shown) [Compound 4] yielded an IC50 against PIM1 kinase (setting [2]) of 20200 ± 2000 nM.

Take `O=C1/C(=C/c2cccc(Cl)c2)Oc2cc(O)cc(O)c21` [Compound 7, (Z)-2-(3-Chlorobenzylidene)-4,6-dihydroxybenzofuran-3(2H)-one]: the IC50 against PIM1 kinase (setting [3]) worked out at 1450 ± 100 nM.

`COc1cc(/C=C2\Oc3cc(O)cc(O)c3C2=O)ccc1Cl` [Compound 9, (Z)-2-(4-Chloro-3-methoxybenzylidene)-4,6-dihydroxybenzofuran-3(2H)-one]: at PIM1 kinase (setting [3]), the concentration for half-maximal inhibition (IC50) is 150 ± 10 nM.

At PIM1 kinase (setting [3]), `COc1cccc(/C=C2\Oc3cc(O)cc(O)c3C2=O)c1` [Compound 6, (Z)-4,6-Dihydroxy-2-(3-methoxybenzylidene)benzofuran-3(2H)-one] had an IC50 of 310 ± 20 nM.

On to `COC[C@H]1OC(=O)c2coc3c2[C@@]1(C)C1=C(C3=O)[C@@H]2CCC(=O)[C@@]2(C)C[C@H]1OC(C)=O` [wortmannin, reference compound], for which the 50% inhibitory concentration (IC50) in test [1] came out at 3400 ± 200 nM.

For the compound `COc1ccc(/C=C2\Oc3cc(O)ccc3C2=O)cn1` [Compound 11, (Z)-6-Hydroxy-2-((6-methoxypyridin-3-yl)methylene)benzofuran-3(2H)-one], the “decrease of inhibitory activity by a factor” value on PIM1 kinase (PIM1, relative to 5 (phenyl ring replaced with pyridine)) is on record as 20. For the same compound, on PIM1 kinase (setting [3]), the midpoint of inhibition, the IC50, lay at 5230 ± 400 nM.

The compound `O=C1/C(=C/c2cc3ccccc3[nH]c2=O)Oc2cc(O)cc(O)c21` [Compound 13, (Z)-3-((4,6-Dihydroxy-3-oxobenzofuran-2(3H)-ylidene)methyl)quinolin-2(1H)-one] registered an IC50 on PIM1 kinase (setting [3]) of 1730 ± 300 nM.

Turning to `O=C1/C(=C/c2ccc(Cl)c(Cl)c2)Oc2cc(O)cc(O)c21` [Compound 10, (Z)-2-(3,4-Dichlorobenzylidene)-4,6-dihydroxybenzofuran-3(2H)-one], half-maximal inhibition against PIM1 kinase (setting [3]) (IC50) required 680 ± 80 nM.

`O=C1c2c(O)cc(O)cc2O[C@H](c2ccc(O)c(O)c2)[C@H]1O` [Compound 3] gave a half-maximal inhibitory concentration (IC50) against PIM1 kinase (setting [2]) of 4000 ± 600 nM.

In the case of `O=C1/C(=C/c2c[nH]c3nc(Cl)ncc23)Oc2cc(O)cc(O)c21` [Compound 16, (Z)-2-((2-Chloro-7H-pyrrolo[2,3-d]pyrimidin-5-yl)methylene)-4,6-dihydroxybenzofuran-3(2H)-one], the IC50 amounted to 7 nM on PIM1 kinase (PIM1), 6.7 ± 3 nM against PIM1 kinase (setting [3]) and 4500 ± 800 nM in test [1].

`O=C1/C(=C/c2ccc[nH]c2=O)Oc2cc(O)cc(O)c21` [Compound 12, (Z)-3-((4,6-Dihydroxy-3-oxobenzofuran-2(3H)-ylidene)methyl)pyridin-2(1H)-one]: on PIM1 kinase (setting [3]), half-maximal inhibition (IC50) was put at 5860 ± 1000 nM.

Consider `COc1ccc(/C=C2\Oc3cc(O)ccc3C2=O)cc1` [Compound 2], for which the values for the IC50 at PIM1 kinase (setting [2]) and at PIM1 kinase (setting [3]) were 1200 ± 100 nM and 1190 ± 70 nM, respectively.

Consider `COc1cccc(/C=C2\Oc3cc(O)ccc3C2=O)c1` [Compound 5, (Z)-6-Hydroxy-2-(3-methoxybenzylidene)benzofuran-3(2H)-one], for which the values for the IC50 (against PIM1 kinase (setting [3]); in test [1]) were 260 ± 50 nM and 15100 ± 1000 nM, respectively.

Take `COc1cc(O)c2c(c1)O/C(=C\c1c[nH]c3ncc(Cl)cc13)C2=O` [Compound 15, (Z)-2-((5-Chloro-1H-pyrrolo[2,3-b]pyridin-3-yl)methylene)-4-hydroxy-6-methoxybenzofuran-3(2H)-one]: the figures for the 50% inhibitory concentration (IC50) (on PIM1 kinase (setting [3]); in test [1]) were 8.8 ± 2 nM and 3200 ± 600 nM, respectively.

Turning to `COc1cc(O)c2c(c1)O/C(=C\c1cc(-c3ccncc3)[nH]n1)C2=O` [Compound 14], the IC50 on PIM1 kinase (setting [3]) came out at 18 ± 2 nM; in test [1], 5900 ± 1000 nM.

Turning to `COc1c(O)c(O)c2oc(-c3ccccc3)cc(=O)c2c1OC` [Compound 1], at PIM1 kinase (setting [2]), it took 580 ± 200 nM to reach half-maximal inhibition (IC50).

As to `COc1cc(/C=C2\Oc3cc(O)ccc3C2=O)ccc1Cl` [Compound 8, (Z)-2-(4-Chloro-3-methoxybenzylidene)-6-hydroxybenzofuran-3(2H)-one], the half-inhibitory concentration (IC50) came to 200 ± 30 nM at PIM1 kinase (setting [3]) and 11200 ± 2000 nM in test [1].

One may read the IC50 as the concentration that gives 50% inhibition. A low value points to higher potency.
